Columns and labels:
[1] = system: multiple myeloma cell line OPM-2; assay: Multiple myeloma cellular efficacy (PrestoBlue cell proliferation/survival assay); type: cell-based; details: Homo sapiens, 96 h; OPM-2 cells, 4 days treatment, PrestoBlue signal relative to vehicle; read-out: Assay 1
Method: Multiple Myeloma Cellular Efficacy:
10000 OPM-2 (ACC50; DSMZ) were plated into wells of a 384 well plate (Greiner 781090). Cells were treated for 4 days with a dose range of compound or vehicle. At the end of the experiment cells were stained directly with PrestoBlue (ThermoFisher Scientific; A13262) for 2 hours at 37° C. in a humidified incubator according to manufactor's instruction. To assess the relative cell number the PrestoBlue signal was measured using either a TecanM1000Pro reader or a Tecan Sparks reader following the manufactor's instructions. Background (no cells) values were subtracted and set in relation to the vehicle control. To assess the EC50 of each compound the relative fluorescence value was plotted against the compound concentration after log transformation. Data were fitted in a nonlinear manner with a variable slope (four parameters) using graphpad prism software. Cellular efficacy of compounds was evaluated in the multiple myeloma cell line OPM-2 using the cell proliferation/survival assay PrestoBlue. EC50 values are classified as indicated below.

CBP bromodomain = target: T1, CBP bromodomain (Homo sapiens, UniProt Q92793); assay: CBP bromodomain binding assay (TR-FRET); details: TR-FRET (Cayman kit 600850), 1 hour incubation at room temperature; read-out: Assay 2
T1 construct: purchased Cayman chemicals 600850
Method: CBP Bromodomain Binding Assay (TR-FRET)
Compounds solutions of 10 mM in DMSO were pre-diluted in DSMO to 25× stock solutions in DMSO. These were then diluted down to 4× in assay buffer. A dilution series in assay buffer was performed keeping the DMSO concentration stable. 5 μl compound in assay buffer was transferred into the assay plate (provided by assay kit) and the TR-FRET assay Cayman chemicals; 600850) was performed using the provider's instructions. After 1 hour incubation at room temperature in the darks, assay plates were read in a Tecan M1000 plate reader or a Tecan Sparks reader using the TR-FRET mode (top read; excitation 340 nm bandwidth 20 nM; emission 620 nm bandwidth 7 nM; gain optimal determined for the first well, number of flashes: 5; flash frequency 100 Hz; integration time: 500 μs, lag time: 100 μs, room temperature). The TR-FRET ratio was calculated by dividing 670 nm emission by 620 nm emission. Values were log transformed and non-linear regression with variable slope (4 parameters) was used to fit values to a dose-response curve to evaluate EC50 values.

T1 sequence (Q92793 1085-1192 limits assumed): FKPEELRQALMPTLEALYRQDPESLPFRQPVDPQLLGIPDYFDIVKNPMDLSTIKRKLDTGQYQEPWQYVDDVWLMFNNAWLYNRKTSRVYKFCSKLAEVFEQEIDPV

| EC50 (CBP bromodomain) [nM] | SMILES | EC50 [1] [nM] |
| --- | --- | --- |
| – | CC(=O)N1C[C@H](c2nc(Nc3cccc(-c4cn(C(C)C)nn4)c3)cc(-c3cnccn3)n2)CC[C@@H]1C [Compound 007, 1-((2S,5R)-5-(4-((3-(1-isopropyl-1H-1,2,3-triazol-4-yl)phenyl)amino)-6-(pyrazin-2-yl)pyrimidin-2-yl)-2-methylpiperidin-1-yl)ethan-1-one] | 50 |
| – | CC(=O)N1C[C@H](c2nc(Nc3cc(F)cc(-c4c[nH]nn4)c3)cc(-c3cnccn3)n2)CC[C@@H]1C [Compound 009, 1-((2S,5R)-5-(4-((3-fluoro-5-(1H-1,2,3-triazol-4-yl)phenyl)amino)-6-(pyrazin-2-yl)pyrimidin-2-yl)-2-methylpiperidin-1-yl)ethan-1-one] | 37 |
| – | CC(=O)N1C[C@H](c2nc(Nc3cc(Cl)cc(-c4cn(C)nn4)c3)cc(-c3cnccn3)n2)CC[C@@H]1C [Compound 021, 1-((2S,5R)-5-(4-((3-chloro-5-(1-methyl-1H-1,2,3-triazol-4-yl)phenyl)amino)-6-(pyrazin-2-yl)pyrimidin-2-yl)-2-methylpiperidin-1-yl)ethan-1-one] | 5 |
| 6 | CC(=O)N1C[C@H](c2nc(Nc3cccc(-c4cn(C)nn4)c3F)cc(-c3cnccn3)n2)CC[C@@H]1C [Compound 019, 1-((2S,5R)-5-(4-((2-fluoro-3-(1-methyl-1H-1,2,3-triazol-4-yl)phenyl)amino)-6-(pyrazin-2-yl)pyrimidin-2-yl)-2-methylpiperidin-1-yl)ethan-1-one] | 1 |
| – | CC(=O)N1C[C@H](c2nc(Nc3cc(Cl)cc(-c4c[nH]nn4)c3)cc(-c3cnccn3)n2)CC[C@@H]1C [Compound 010, 1-((2S,5R)-5-(4-((3-chloro-5-(1H-1,2,3-triazol-4-yl)phenyl)amino)-6-(pyrazin-2-yl)pyrimidin-2-yl)-2-methylpiperidin-1-yl)ethan-1-one] | 45 |
| 7 | CC(=O)N1C[C@H](c2nc(Nc3cc(F)cc(-c4cn(C)cn4)c3)cc(-c3cnccn3)n2)CC[C@@H]1C [Compound 001, 1-((2S,5R)-5-(4-((3-fluoro-5-(1-methyl-1H-imidazol-4-yl)phenyl)amino)-6-(pyrazin-2-yl)pyrimidin-2-yl)-2-methylpiperidin-1-yl)ethan-1-one] | 1 |
| – | CC(=O)N1C[C@H](c2nc(Nc3cccc(-c4cnn(C)c4C)c3)cc(-c3cnccn3)n2)CC[C@@H]1C [Compound 005] | 193 |
| 3 | CC(=O)N1C[C@H](c2nc(Nc3cc(F)cc(-c4nnc(C)o4)c3)cc(-c3cnccn3)n2)CC[C@@H]1C [Compound 006, 1-((2S,5R)-5-(4-((3-fluoro-5-(5-methyl-1,3,4-oxadiazol-2-yl)phenyl)amino)-6-(pyrazin-2-yl)pyrimidin-2-yl)-2-methylpiperidin-1-yl)ethan-1-one] | 6 |
| 22 | CC(=O)N1C[C@H](c2nc(Nc3ccc(F)c(-c4cn(C)nn4)c3)cc(-c3cnccn3)n2)CC[C@@H]1C [Compound 018, 1-((2S,5R)-5-(4-((4-fluoro-3-(1-methyl-1H-1,2,3-triazol-4-yl)phenyl)amino)-6-(pyrazin-2-yl)pyrimidin-2-yl)-2-methylpiperidin-1-yl)ethan-1-one] | 63 |
| – | CCn1cc(-c2cccc(Nc3cc(-c4cnccn4)nc([C@@H]4CC[C@H](C)N(C(C)=O)C4)n3)c2)nn1 [Compound 011, 1-((2S,5R)-5-(4-((3-(1-ethyl-1H-1,2,3-triazol-4-yl)phenyl)amino)-6-(pyrazin-2-yl)pyrimidin-2-yl)-2-methylpiperidin-1-yl)ethan-1-one] | 6 |
| – | CC(=O)N1C[C@H](c2nc(Nc3cccc(-c4cn(C5COC5)nn4)c3)cc(-c3cnccn3)n2)CC[C@@H]1C [Compound 008] | 28 |
| – | CC(=O)N1C[C@H](c2nc(Nc3cc(F)cc(-c4cn(C5COC5)nn4)c3)cc(-c3cnccn3)n2)CC[C@@H]1C [Compound 022, 1-((2S,5R)-5-(4-((3-fluoro-5-(1-(oxetan-3-yl)-1H-1,2,3-triazol-4-yl)phenyl)amino)-6-(pyrazin-2-yl)pyrimidin-2-yl)-2-methylpiperidin-1-yl)ethan-1-one] | 13 |
| 65 | CC(=O)N1C[C@H](c2nc(Nc3cccc(-c4cn(C5COC5)nn4)c3F)cc(-c3cnccn3)n2)CC[C@@H]1C [Compound 023] | 7 |
| – | CC(=O)N1C[C@H](c2nc(Nc3cccc(-c4cn(C)nn4)c3C)cc(-c3cnccn3)n2)CC[C@@H]1C [Compound 013] | 32 |
| 128 | CC(=O)N1C[C@H](c2nc(Nc3cccc(-c4cn(C)nc4C)c3)cc(-c3cnccn3)n2)CC[C@@H]1C [Compound 004] | – |
| – | CC(=O)N1C[C@H](c2nc(Nc3ccc(C)c(-c4cn(C)nn4)c3)cc(-c3cnccn3)n2)CC[C@@H]1C [Compound 012, 1-((2S,5R)-2-methyl-5-(4-((4-methyl-3-(1-methyl-1H-1,2,3-triazol-4-yl)phenyl)amino)-6-(pyrazin-2-yl)pyrimidin-2-yl)piperidin-1-yl)ethan-1-one] | 261 |
| – | CC(=O)N1C[C@H](c2nc(Nc3cc(-c4cn(C)nn4)ccc3F)cc(-c3cnccn3)n2)CC[C@@H]1C [Compound 020] | 864 |
| – | CC(=O)N1C[C@H](c2nc(Nc3cccc(-c4cnnn4C)c3)cc(-c3cnccn3)n2)CC[C@@H]1C [Compound 017, 1-((2S,5R)-2-methyl-5-(4-((3-(1-methyl-1H-1,2,3-triazol-5-yl)phenyl)amino)-6-(pyrazin-2-yl)pyrimidin-2-yl)piperidin-1-yl)ethan-1-one] | 458 |
| – | CC(=O)N1C[C@H](c2nc(Nc3cccc(-c4nnn(C)c4C)c3)cc(-c3cnccn3)n2)CC[C@@H]1C [Compound 015, 1-((2S,5R)-5-(4-((3-(1,5-dimethyl-1H-1,2,3-triazol-4-yl)phenyl)amino)-6-(pyrazin-2-yl)pyrimidin-2-yl)-2-methylpiperidin-1-yl)ethan-1-one] | 109 |
| – | CC(=O)N1C[C@H](c2nc(Nc3cccc(-c4nn(C)nc4C)c3)cc(-c3cnccn3)n2)CC[C@@H]1C [Compound 016, 1-((2S,5R)-5-(4-((3-(2,5-dimethyl-2H-1,2,3-triazol-4-yl)phenyl)amino)-6-(pyrazin-2-yl)pyrimidin-2-yl)-2-methylpiperidin-1-yl)ethan-1-one] | 142 |

| SMILES | EC50 (CBP bromodomain) [nM] | EC50 [1] [nM] |
| --- | --- | --- |
| CC(=O)N1C[C@H](c2nc(Nc3cc(C)cc(-c4cn(C)nn4)c3)cc(-c3cnccn3)n2)CC[C@@H]1C [Compound 014, 1-((2S,5R)-2-methyl-5-(4-((3-methyl-5-(1-methyl-1H-1,2,3-triazol-4-yl)phenyl)amino)-6-(pyrazin-2-yl)pyrimidin-2-yl)piperidin-1-yl)ethan-1-one] | 7 | 5 |
| CC(=O)N1C[C@H](c2nc(Nc3cc(F)cc(-c4cn[nH]c4)c3)cc(-c3cnccn3)n2)CC[C@@H]1C [Compound 002, 1-((2S,5R)-5-(4-((3-fluoro-5-(1H-pyrazol-4-yl)phenyl)amino)-6-(pyrazin-2-yl)pyrimidin-2-yl)-2-methylpiperidin-1-yl)ethan-1-one] | 23 | 25 |

From patent US12595258B2, “Heterocyclic derivatives, pharmaceutical compositions and their use in the treatment or amelioration of cancer” (TOLREMO THERAPEUTICS AG, priority 2022, dated 2026)
